Data from patent US20200010479A1, “INHIBITORS OF MICROBIAL BETA-GLUCURONIDASE ENZYMES AND USES THEREOF” (THE UNIVERSITY OF NORTH CAROLINA AT CHAPEL HILL, priority 2017, published 2020).

Key:
E. coli GUS = E. coli GUS (Escherichia coli, UniProt P05804); assay: In vitro EcGUS inhibition, cleavage of PNPG by purified E. coli GUS; format: biochemical; conditions: PNPG substrate, 37° C., 2 hours
Protocol: To assess GUS inhibition, cleavage of p-nitrophenyl-β-D-glucuronide (PNPG) by purified E. coli GUS in the presence of inhibitor was measured. The reaction was performed in 96-well clear-bottom plates at a volume of 50 μL. Each reaction contained 5 μL of 100 nM E. coli GUS, 5 μL of inhibitor at various concentrations, 10 μL of 250 mM HEPES and 250 mM NaCl assay buffer, and 30 μL of 1.5 mM PNPG. The reaction was initiated by addition of PNPG and incubated at 37° C. for 2 hours. End point absorbance values at 410 nm were measured using a PHERAstar Plus microplate reader. The resulting data were fit with a four-parameter logistic log function in SigmaPlot 13.0 to determine IC50 values. IC50 was defined as the concentration of inhibitor that yields a 50% reduction in product formation at equilibrium.

[1] = rats; cited from earlier work
[2] = test system: panel of purified GUS enzymes present in the human gut microbiota; assay: SN-38-G processing by panel of purified GUS enzymes, with inhibitors; format: biochemical; conditions: enzymes other than E. coli GUS
[3] = test system: gut microbial GUS enzymes; conditions: co-treatment with irinotecan; cited from earlier work
[4] = test system: GUS activity in human fecal extracts; conditions: cited from earlier work
[5] = test system: bacteria cultured in vitro; conditions: cited from earlier work

Chain of E. coli GUS (P05804 whole entry): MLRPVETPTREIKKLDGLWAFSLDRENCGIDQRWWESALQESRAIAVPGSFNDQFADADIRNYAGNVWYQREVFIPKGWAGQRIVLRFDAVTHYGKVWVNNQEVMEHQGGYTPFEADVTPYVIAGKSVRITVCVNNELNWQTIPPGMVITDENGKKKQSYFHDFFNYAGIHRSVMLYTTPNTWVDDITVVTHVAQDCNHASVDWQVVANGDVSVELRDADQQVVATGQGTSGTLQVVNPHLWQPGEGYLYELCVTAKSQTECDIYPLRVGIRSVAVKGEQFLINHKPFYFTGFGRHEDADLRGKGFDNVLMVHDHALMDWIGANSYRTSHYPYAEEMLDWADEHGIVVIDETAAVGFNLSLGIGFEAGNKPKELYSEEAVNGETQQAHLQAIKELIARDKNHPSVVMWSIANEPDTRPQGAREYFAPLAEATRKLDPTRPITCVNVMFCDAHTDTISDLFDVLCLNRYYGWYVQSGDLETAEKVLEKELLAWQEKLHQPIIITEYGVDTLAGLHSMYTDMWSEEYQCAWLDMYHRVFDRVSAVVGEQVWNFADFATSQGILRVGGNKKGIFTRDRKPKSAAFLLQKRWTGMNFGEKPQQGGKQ

Structure (SMILES)	IC50 (E. coli GUS) [nM]	further results
CN1CCN(c2nnnc3c2sc2nc(N4CCOCC4)c4c(c23)CCCC4)CC1 [Compound 2]	37600 ± 700	–
C1CCc2c(c(N3CCOCC3)nc3sc4c(NC5CCNCC5)nnnc4c23)C1 [Compound 4]	30000 ± 10000	–
C1CCc2c(c(N3CCOCC3)nc3sc4c(N5CC6CC5CN6)nnnc4c23)C1 (centres unmarked) [Compound 5]	9000 ± 2000	–
C[C@@H]1CN(c2nnnc3c2sc2nc(N4CCOCC4)c4c(c23)CCCC4)CCN1 [Compound 6]	2400 ± 400	–
C[C@H]1CN(c2nnnc3c2sc2nc(N4CCOCC4)c4c(c23)CCCC4)CCN1 [Compound 7]	2400 ± 300	–
C1CCc2c(c(N3CCOCC3)nc3sc4c(N5CCCNCC5)nnnc4c23)C1 [Compound 8]	9000 ± 2000	–
NCCNc1nnnc2c1sc1nc(N3CCOCC3)c3c(c12)CCCC3 [Compound 9]	5600 ± 500	–
C1CCc2c(c(N3CCNCC3)nc3sc4c(N5CCNCC5)nnnc4c23)C1 [Compound 12]	130 ± 10	–
C1CCN(c2nc3sc4c(N5CCNCC5)nnnc4c3c3c2CCCC3)CC1 [Compound 13]	500 ± 200	–
C1CCC(Nc2nc3sc4c(N5CCNCC5)nnnc4c3c3c2CCCC3)CC1 [Compound 14]	800 ± 200	–
CN(C)c1nc2sc3c(N4CCNCC4)nnnc3c2c2c1CCCC2 [Compound 15]	130 ± 10	–
c1ccc(CNc2nc3sc4c(N5CCNCC5)nnnc4c3c3c2CCCC3)cc1 [Compound 17]	190 ± 40	–
c1cc2c(nc1N1CCOCC1)sc1c(N3CCNCC3)nnnc12 [Compound 19]	170 ± 40	–
CNc1nc(N2CCNCC2)c2sc3nc(N4CCOCC4)ccc3c2n1 [Compound 21]	100 ± 20	–
c1ccc(-c2ccc3c(n2)sc2c(N4CCNCC4)nnnc23)cc1 [Compound 22]	150 ± 50	–
c1ccc(-c2ccc3c(n2)sc2c(N4CCNCC4)ncnc23)cc1 [Compound 23]	130 ± 30	–
CNc1nc(N2CCNCC2)c2sc3nc(-c4ccccc4)ccc3c2n1 [Compound 24]	180 ± 90	–
CN(C)c1nc(N2CCNCC2)c2sc3nc(-c4ccccc4)ccc3c2n1 [Compound 25]	190 ± 90	–
OCCNc1nc(N2CCNCC2)c2sc3nc(-c4ccccc4)ccc3c2n1 [Compound 26]	120 ± 20	–
CN(C)c1ccc2c(n1)sc1c(N3CCNCC3)nnnc12 [Compound 27]	80 ± 30	–
CNc1nc(N2CCNCC2)c2sc3nc(N(C)C)ccc3c2n1 [Compound 28]	42 ± 6	–
CNc1ccc2c(n1)sc1c(N3CCNCC3)nc(NC)nc12 [Compound 29]	40 ± 8	–
c1cnc2sc3c(N4CCNCC4)ncnc3c2c1 [Compound 30]	80 ± 20	–
CNc1nc(N2CCNCC2)c2sc3ncccc3c2n1 [Compound 31]	36 ± 2	–
CCOc1ccc(NC(=S)N(CCO)Cc2cc3cc(C)cc(C)c3[nH]c2=O)cc1 [Inh1]	–	NSAID-induced intestinal anastomosis after surgical resection [1]: reduce NSAID-induced intestinal anastomosis; effects on other GUS enzymes, including others from the L1 category [2]: weak effects; gut toxicity and diarrhea [3]: alleviated gut toxicity and diarrhea
Clc1ccc2c(c1)C(N1CCNCC1)=Nc1ccccc1O2 [amoxapine]	–	block of GUS activity in human fecal extracts [4]: incompletely blocks; viability of bacteria cultured in vitro [5]: reduced the viability
